tested on: not listed separately; experiment: In vitro cytotoxicity by MTT assay, HEK 293; assay type: cell-based, human; details: human, HEK 293 cells, 0.005 μM, read-out: % cytotoxicity (100 − % cell survival) of HEK 293 cell line
Procedure, shortened: (§1)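 After 72 h of compound exposure at 37 °C in 5 % CO2, MTT was added for 4 h and the propanol-solubilised formazan was read at 490 nm. Monolayers (~10,000 cells/well, RPMI-1640 plus 10 % newborn calf serum) had been allowed to form for 24 h beforehand.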

Row | Structure (SMILES) | cytotoxicity at 72 h, 0.005 µM
1 | CC(=O)Nc1ccc(S(=O)(=O)Nc2nnc(S(=O)(=O)NC(=O)c3ccc([N+](=O)[O-])cc3)s2)cc1 [Compound 6e] | 39.1%

same assay, conditions: human, HEK 293 cells, 0.015 μM, read-out: % cytotoxicity (100 − % cell survival) of HEK 293 cell line

Row | Structure (SMILES) | cytotoxicity at 72 h, 0.015 µM
2 | CC(=O)Nc1ccc(S(=O)(=O)Nc2nnc(S(=O)(=O)NC(=O)c3ccc([N+](=O)[O-])cc3)s2)cc1 [Compound 6e] | 42%

same assay, conditions: human, HEK 293 cells, 0.045 μM, read-out: % cytotoxicity (100 − % cell survival) of HEK 293 cell line

Row | Structure (SMILES) | cytotoxicity at 72 h, 0.045 µM
3 | CC(=O)Nc1ccc(S(=O)(=O)Nc2nnc(S(=O)(=O)NC(=O)c3ccc([N+](=O)[O-])cc3)s2)cc1 [Compound 6e] | 42.7%

same assay, conditions: human, HEK 293 cells, 0.13 μM, read-out: % cytotoxicity (100 − % cell survival) of HEK 293 cell line

Row | Structure (SMILES) | cytotoxicity at 72 h, 0.13 µM
4 | CC(=O)Nc1ccc(S(=O)(=O)Nc2nnc(S(=O)(=O)NC(=O)c3ccc([N+](=O)[O-])cc3)s2)cc1 [Compound 6e] | 43.4%

same assay, conditions: human, HEK 293 cells, 0.41 μM, read-out: % cytotoxicity (100 − % cell survival) of HEK 293 cell line

Row | Structure (SMILES) | cytotoxicity at 72 h, 0.41 µM
5 | CC(=O)Nc1ccc(S(=O)(=O)Nc2nnc(S(=O)(=O)NC(=O)c3ccc([N+](=O)[O-])cc3)s2)cc1 [Compound 6e] | 45.3%

same assay, conditions: human, HEK 293 cells, 1.23 μM, read-out: % cytotoxicity (100 − % cell survival) of HEK 293 cell line

Row | Structure (SMILES) | cytotoxicity at 72 h, 1.23 µM
6 | CC(=O)Nc1ccc(S(=O)(=O)Nc2nnc(S(=O)(=O)NC(=O)c3ccc([N+](=O)[O-])cc3)s2)cc1 [Compound 6e] | 47.1%

same assay, conditions: human, HEK 293 cells, 3.7 μM, read-out: % cytotoxicity (100 − % cell survival) of HEK 293 cell line

Row | Structure (SMILES) | cytotoxicity at 72 h, 3.7 µM
7 | CC(=O)Nc1ccc(S(=O)(=O)Nc2nnc(S(=O)(=O)NC(=O)c3ccc([N+](=O)[O-])cc3)s2)cc1 [Compound 6e] | 49.1%

same assay, conditions: human, HEK 293 cells, 11.11 μM, read-out: % cytotoxicity (100 − % cell survival) of HEK 293 cell line

Row | Structure (SMILES) | cytotoxicity at 72 h, 11.11 µM
8 | CC(=O)Nc1ccc(S(=O)(=O)Nc2nnc(S(=O)(=O)NC(=O)c3ccc([N+](=O)[O-])cc3)s2)cc1 [Compound 6e] | 49.9%

same assay, conditions: human, HEK 293 cells, 33.33 μM, read-out: % cytotoxicity (100 − % cell survival) of HEK 293 cell line

Row | Structure (SMILES) | cytotoxicity at 72 h, 33.33 µM
9 | CC(=O)Nc1ccc(S(=O)(=O)Nc2nnc(S(=O)(=O)NC(=O)c3ccc([N+](=O)[O-])cc3)s2)cc1 [Compound 6e] | 51.2%

same assay, conditions: human, HEK 293 cells, 100 μM, read-out: % cytotoxicity (100 − % cell survival) of HEK 293 cell line

Row | Structure (SMILES) | cytotoxicity at 72 h, 100 µM
10 | CC(=O)Nc1ccc(S(=O)(=O)Nc2nnc(S(=O)(=O)NC(=O)c3ccc([N+](=O)[O-])cc3)s2)cc1 [Compound 6e] | 55%

tested on: BT474 (breast cancer cell line); experiment: In vitro cytotoxicity by MTT assay, BT474; assay type: cell-based; details: Homo sapiens, BT-474, 0.005 μM, 72 h, read-out: % cytotoxicity (100 − % cell survival) of BT474 cell line
Procedure, shortened: as §1

Row | Structure (SMILES) | cytotoxicity at 0.005 µM
11 | CC(=O)Nc1ccc(S(=O)(=O)Nc2nnc(S(=O)(=O)NC(=O)c3ccc([N+](=O)[O-])cc3)s2)cc1 [Compound 6e] | 27.1%

same assay, conditions: Homo sapiens, BT-474, 0.015 μM, 72 h, read-out: % cytotoxicity (100 − % cell survival) of BT474 cell line

Row | Structure (SMILES) | cytotoxicity at 0.015 µM
12 | CC(=O)Nc1ccc(S(=O)(=O)Nc2nnc(S(=O)(=O)NC(=O)c3ccc([N+](=O)[O-])cc3)s2)cc1 [Compound 6e] | 28%

same assay, conditions: Homo sapiens, BT-474, 0.045 μM, 72 h, read-out: % cytotoxicity (100 − % cell survival) of BT474 cell line

Row | Structure (SMILES) | cytotoxicity at 0.045 µM
13 | CC(=O)Nc1ccc(S(=O)(=O)Nc2nnc(S(=O)(=O)NC(=O)c3ccc([N+](=O)[O-])cc3)s2)cc1 [Compound 6e] | 28.1%

same assay, conditions: Homo sapiens, BT-474, 0.13 μM, 72 h, read-out: % cytotoxicity (100 − % cell survival) of BT474 cell line

Row | Structure (SMILES) | cytotoxicity at 0.13 µM
14 | CC(=O)Nc1ccc(S(=O)(=O)Nc2nnc(S(=O)(=O)NC(=O)c3ccc([N+](=O)[O-])cc3)s2)cc1 [Compound 6e] | 28.7%

same assay, conditions: Homo sapiens, BT-474, 0.41 μM, 72 h, read-out: % cytotoxicity (100 − % cell survival) of BT474 cell line

Row | Structure (SMILES) | cytotoxicity at 0.41 µM
15 | CC(=O)Nc1ccc(S(=O)(=O)Nc2nnc(S(=O)(=O)NC(=O)c3ccc([N+](=O)[O-])cc3)s2)cc1 [Compound 6e] | 29.4%

Reference: article PMC3973950, “Synthesis of 5-arylidine amino-1,3,4-thiadiazol-2-[(N-substituted benzyol)]sulphonamides endowed with potent antioxidants and anticancer activity induces growth inhibition in HEK293, BT474 and NCI-H226 cells” (Medicinal Chemistry Research, 2013)
